Source: the NIST ThermoML archive (doi:10.1016/j.fluid.2009.09.015)

Experiments:
[1] = Liquid; for mass density: 298 K, Vibrating tube method; for mass density / viscosity: 101.33 kPa; for viscosity: 298.15 K, Capillary tube (Ostwald / Ubbelohde) method; for Normal boiling temperature: Ebulliometric method (Recirculating still)
[2] = refractive index (Na D-line) (dimensionless); details: 298.15 K; 101.33 kPa; Liquid; ATAGO RX-5000 refractometer with Hero Therm thermostat
[3] = refractive index (Na D-line) (dimensionless); xn = mol fraction of the nth substance listed; details: 298.15 K, 101 kPa, Liquid, ATAGO RX-5000 refractometer with Hero Therm thermostat
[4] = xn = mol fraction of the nth substance listed; details: 298.15 K, 101 kPa, Liquid; for viscosity: Capillary tube (Ostwald / Ubbelohde) method; for mass density: Vibrating tube method

CCCCCCCCn1cc[n+](C)c1.O=S(=O)([N-]S(=O)(=O)C(F)(F)F)C(F)(F)F
Details	mass density [kg/m3]	refractive index	viscosity [mPa·s]
[1]	1320.59	–	92.51
[2]	–	1.43298	–

CCCCCCCCn1cc[n+](C)c1.O=S(=O)([N-]S(=O)(=O)C(F)(F)F)C(F)(F)F + CC(=O)OC(C)C
Details	mass density, [4] [kg/m3]	refractive index, [3]	viscosity, [4] [mPa·s]
x2 = 0.0415	1314.43	1.43222	81.81
x2 = 0.0984	1305.77	1.4313	70.33
x2 = 0.1644	1294.72	1.43009	58.16
x2 = 0.2055	1287.14	1.42923	51.89
x2 = 0.301	1267.67	1.42702	38.25
x2 = 0.3956	1244.68	1.42458	26.57
x2 = 0.4996	1214.35	1.42091	17.09
x2 = 0.5837	1184.33	1.41742	11.42
x2 = 0.7048	1129.29	1.41083	5.785
x2 = 0.8036	1068.65	1.40324	2.993
x2 = 0.8991	988.94	1.39275	1.389

CCCCCCCCn1cc[n+](C)c1.O=S(=O)([N-]S(=O)(=O)C(F)(F)F)C(F)(F)F + CC(C)O
Details	mass density, [4] [kg/m3]	refractive index, [3]	viscosity, [4] [mPa·s]
x2 = 0.0331	1316.64	1.43251	85.24
x2 = 0.066	1312.4	1.43205	78.1
x2 = 0.105	1307.22	1.43149	71.48
x2 = 0.1823	1295.84	1.43031	60.13
x2 = 0.2732	1280.29	1.42862	47.98
x2 = 0.3284	1269.48	1.42746	39.87
x2 = 0.4097	1250.88	1.42551	33.13
x2 = 0.5055	1224.13	1.42269	24.79
x2 = 0.5848	1196.42	1.41988	19.09
x2 = 0.6747	1155.99	1.41568	13.79
x2 = 0.7832	1087.54	1.40856	8.606
x2 = 0.8966	972.52	1.39645	4.615

CC(=O)OC(C)C [1-methylethyl ethanoate]
Details	Normal boiling temperature [°C]	mass density [kg/m3]	refractive index	viscosity [mPa·s]
[1]	88.30	866.21	–	0.481
[2]	–	–	1.3748	–

CC(=O)OC(C)C [1-methylethyl ethanoate] + CC(C)O
Details	mass density, [4] [kg/m3]	refractive index, [3]	viscosity, [4] [mPa·s]
x1 = 0.1199	793.54	1.37417	1.278
x1 = 0.2041	802.03	1.37374	1.021
x1 = 0.294	810.58	1.37344	0.812
x1 = 0.3802	818.32	1.3733	0.722
x1 = 0.4855	827.39	1.37331	0.635
x1 = 0.5877	835.68	1.37339	0.563
x1 = 0.7138	845.52	1.37369	0.538
x1 = 0.7681	849.64	1.37383	0.515
x1 = 0.8777	857.56	1.37419	0.5

CC(C)O [propan-2-ol]
Details	Normal boiling temperature [°C]	mass density [kg/m3]	refractive index	viscosity [mPa·s]
[1]	82.22	780.88	–	2.073
[2]	–	–	1.37502	–
